Laboratory results: patent publication US20160130259A1, “SUBSTITUTED BENZOFURAN COMPOUNDS AND METHODS OF USE THEREOF FOR THE TREATMENT OF VIRAL DISEASES” (priority 2013, published 2016)

Columns and labels:
HCV replicon genotype 1b = assay: HCV replicon assay, genotype 1b (cell ELISA for NS3/4A); assay type: cell-based; settings: Hepatitis C virus, 96 h, read-out: 1b IC50 (nM)
Experimental: (§1) Measurement of inhibition by compounds was performed using the HCV replicon system. Several different replicons encoding different HCV genotypes or mutations were used. In addition, potency measurements were made using different formats of the replicon assay, including different ways of measurements and different plating formats. See Jan M. Vrolijk et al., A replicons-based bioassay for the measurement of interferons in patients with chronic hepatitis C, 110 J. Virological Methods 201 (2003); Steven S. Carroll et al., Inhibition of Hepatitis C Virus RNA Replication by 2′-Modified Nucleoside Analogs, 278(14) J. Biological Chemistry 11979 (2003). However, the underlying principles are common to all of these determinations, and are outlined below.
(§2) Stable neomycin phosphotransferase encoding replicons-harboring cell lines were used, so all cell lines were maintained under G418 selection prior to the assay. Potency was determined using a cell ELISA assay with an antibody to the replicons encoded NS3/4a protease. See Caterina Trozzi et al., In Vitro Selection and Characterization of Hepatitis C Virus Serine Protease Variants Resistant to an Active-Site Peptide Inhibitor, 77(6) J. Virol. 3669 (2003). To initiate an assay, replicon cells were plated in the presence of a dilution series of test compound in the absence of G418. Typically, the assays were performed in a 96-well plate formate for manual operation, or a 384-well plate format for automated assay. Replicon cells and compound were incubated for 96 hours. At the end of the assay, cells were washed free of media and compound, and the cells were then lysed. RNA was quantified indirectly through detection of replicon-encoded NS3/4A protein levels, through an ELISA-based assay with an antibody specific for NS3/4A. IC50 determinations were calculated as a percentage of a DMSO control by fitting the data to a four-parameter fit function and the data obtained is provided in the table below.
(§3) Data for selected compounds of the present invention was obtained for genotypes 1a and 1b using this method and is provided in the table below: […]

HCV replicon genotype 1a = assay: HCV replicon assay, genotype 1a (cell ELISA for NS3/4A); assay type: cell-based; settings: Hepatitis C virus, 96 h, read-out: 1a IC50 (nM)
Experimental: as §1, §2, §3

Compound | IC50 (HCV replicon genotype 1b) | IC50 (HCV replicon genotype 1a)
CNC(=O)c1c(-c2ccc(F)cc2)oc2cc(N(C)S(C)(=O)=O)c(-c3cc(-c4cc5c(F)cccc5[nH]4)c(=O)n(C)c3)cc12 [Compound 1, 5-(5-(4-fluoro-1H-indol-2-yl)-1-methyl-6-oxo-1,6-dihydropyridin-3-yl)-2-(4-fluorophenyl)-N-methyl-6-(N-methylmethylsulfonamido)benzofuran-3-carboxamide] | 3.88 nM | 3.62 nM
CNC(=O)c1c(-c2ccc(F)cc2)oc2cc(N(C)S(C)(=O)=O)c(-c3cc(-c4cc5c(C#N)cccc5[nH]4)cn(C)c3=O)cc12 [Compound 12, 5-(5-(4-cyano-1H-indol-2-yl)-1-methyl-2-oxo-1,2-dihydropyridin-3-yl)-2-(4-fluorophenyl)-N-methyl-6-(N-methylmethylsulfonamido) benzofuran-3-carboxamide] | 1.67 nM | 3.28 nM
CNC(=O)c1c(-c2ccc(F)cc2)oc2cc(N(C)S(C)(=O)=O)c(-c3cc(-c4cc5c(F)cccc5[nH]4)c(=O)n(C)n3)cc12 [Compound 13, 5-(5-(4-fluoro-1H-indol-2-yl)-1-methyl-6-oxo-1,6-dihydropyridazin-3-yl)-2-(4-fluorophenyl)-N-methyl-6-(N-methylmethylsulfonamido)benzofuran-3-carboxamide] | 6.59 nM | 4.52 nM
CNC(=O)c1c(-c2ccc(F)cc2)oc2cc(N(C)S(C)(=O)=O)c(-c3cc(-c4cc5c(C#N)cccc5[nH]4)c(=O)n(C)c3)cc12 [Compound 2, 5-(5-(4-cyano-1H-indol-2-yl)-1-methyl-6-oxo-1,6-dihydropyridin-3-yl)-2-(4-fluorophenyl)-N-methyl-6-(N-methylmethylsulfonamido)-benzofuran-3-carboxamide] | 2.43 nM | 2.47 nM
CNC(=O)c1c(-c2ccc(F)cc2)oc2cc(N(C)S(C)(=O)=O)c(-c3cnc(=O)n(-c4ccc5ccccc5c4)c3)cc12 [Compound 28, 2-(4-fluorophenyl)-N-methyl-6-(N-methylmethylsulfonamido)-5-(1-(naphthalen-2-yl)-2-oxo-1,2-dihydropyrimidin-5-yl)benzofuran-3-carboxamide] | 18 nM | 116 nM
CNC(=O)c1c(-c2ccc(F)cc2)oc2cc(N(C)S(C)(=O)=O)c(-c3cc(C(=O)N[C@H](C)c4ccc(F)cc4)c(=O)n(C)c3)cc12 [Compound 27, (R)-5-(2-(4-fluorophenyl)-3-(methylcarbamoyl)-6-(N-methylmethylsulfonamido)benzoturan-5-yl)-N-(1-(4-fluorophenyl)ethyl)-1-methyl-2-oxo-1,2-dihydropyridine-3-carboxamide] | 4.47 nM | 6.87 nM
CNC(=O)c1c(-c2ccc(F)cc2)oc2ccc(-n3cc(C(=O)NC4(c5ccc6cnccc6n5)CC4)ncc3=O)cc12 [Compound 25, N-(1-(1,6-naphthyridin-2-yl)cyclopropyl)-4-(2-(4-fluorophenyl)-3-(methylcarbamoyl)benzofuran-5-yl)-5-oxo-4,5-dihydropyrazine-2-carboxamide] | 38.3 nM | 72.5 nM
CNC(=O)c1c(-c2ccc(F)cc2)oc2ccc(-n3cc(C(=O)N[C@H](CO)c4ccc(F)cc4)ncc3=O)cc12 [Compound 22, (S)-N-(1-(4-fluorophenyl)-2-hydroxyethyl)-4-(2-(4-fluorophenyl)-3-(methylcarbamoyl)benzofuran-5-yl)-5-oxo-4,5-dihydropyrazine-2-carboxamide] | 193 nM | 354 nM
CNC(=O)c1c(-c2ccc(F)cc2)oc2cc(N(C)S(C)(=O)=O)c(-c3cc(-c4cc5c(F)cccc5[nH]4)c(=O)n(C(F)F)c3)cc12 [Compound 3, 5-(1-(difluoromethyl)-5-(4-fluoro-1H-indol-2-yl)-6-oxo-1,6-dihydropyridin-3-yl)-2-(4-fluorophenyl)-N-methyl-6-(N-methylmethyl-sulfonamido)benzofuran-3-carboxamide] | 5.37 nM | 2.98 nM
CNC(=O)c1c(-c2ccc(F)cc2)oc2cc(N(C)S(C)(=O)=O)c(-c3cc(N4Cc5c(F)cccc5C4=O)c(=O)n(C)c3)cc12 [Compound 6, 5-(5-(4-fluoro-1-oxoisoindolin-2-yl)-1-methyl-6-oxo-1,6-dihydropyridin-3-yl)-2-(4-fluorophenyl)-N-methyl-6-(N-methylmethylsulfonamido)benzofuran-3-carboxamide] | 8.38 nM | 16.5 nM
CNC(=O)c1c(-c2ccc(F)cc2)oc2ccc(-n3cc(C(=O)NCc4ccc(F)cn4)ncc3=O)cc12 [Compound 23, 4-(2-(4-fluorophenyl)-3-(methylcarbamoyl)benzofuran-5-yl)-N-((5-fluoropyridin-2-yl)methyl)-5-oxo-4,5-dihydropyrazine-2-carboxamide] | 213 nM | 492 nM
CNC(=O)c1c(-c2ccc(F)cc2)oc2ccc(-n3cc(C(=O)NC4(c5ccc(F)cc5)CC4)ncc3=O)cc12 [Compound 24, 4-(2-(4-fluorophenyl)-3-(methylcarbamoyl)benzofuran-5-yl)-N-(1-(4-fluorophenyl)cyclopropyl)-5-oxo-4,5-dihydropyrdzine-2-carboxamide] | 35.5 nM | 80.8 nM
CNC(=O)c1c(-c2ccc(F)cc2)oc2cc(N(C)S(C)(=O)=O)c(-c3cc(-c4cnn(-c5ccc(F)cc5)c4)c(=O)n(C)c3)cc12 [Compound 4, 2-(4-fluorophenyl)-5-(5-(1-(4-fluorophenyl)-1H-pyrazol-4-yl)-1-methyl-6-oxo-1,6-dihydropyridin-3-yl)-N-methyl-6-(N-methyl-methylsulfonamido)benzo-furan-3-carboxamide] | 6.81 nM | 5.71 nM
CNC(=O)c1c(-c2ccc(F)cc2)oc2cc(N(C)S(C)(=O)=O)c(-c3cc(-c4cc5c(C#N)cccc5[nH]4)c(=O)n(C)n3)cc12 [Compound 14, 5-(5-(4-cyano-1H-indol-2-yl)-1-methyl-6-oxo-1,6-dihydropyridazin-3-yl)-2-(4-fluorophenyl)-N-methyl-6-(N-methylmethylsulfonamido) benzofuran-3-carboxamide] | 4.43 nM | 3.55 nM
CNC(=O)c1c(-c2ccc(F)cc2)oc2cc(N(C)S(C)(=O)=O)c(-c3cc(-c4nc5ncccc5o4)c(=O)n(C)c3)cc12 [Compound 10, 2-(4-fluorophenyl)-N-methyl-5-(1-methyl-5-(oxazolo[4,5-b]pyridin-2-yl)-6-oxo-1,6-dihydropyridin-3-yl)-6-(N-methylmethylsulfonamido) benzofuran-3-carboxamide] | 10.1 nM | 22.7 nM
CNC(=O)c1c(-c2ccc(F)cc2)oc2cc(N(C)S(C)(=O)=O)c(-c3cc4n(c(=O)n3)CCn3c-4cc4c(F)cccc43)cc12 [Compound 31, 5-(12-fluoro-4-oxo-6,7-dihydro-4H-pyrimido[6′,1′:3,4]pyrazino[1,2-a]indol-2-yl)-2-(4-fluorophenyl)-N-methyl-6-(N-methylmethylsulfonamido)benzofuran-3-carboxamide] | 6.95 nM | 3.48 nM
CNC(=O)c1c(-c2ccc(F)cc2)oc2cc(N(C)S(C)(=O)=O)c(-c3cc(-c4cc5c(F)cccc5n4C)c(=O)n(C(F)F)c3)cc12 [Compound 8, 5-(1-(difluoromethyl)-5-(4-fluoro-1-methyl-1H-indol-2-yl)-6-oxo-1,6-dihydropyridin-3-yl)-2-(4-fluorophenyl)-N-methyl-6-(N-methyl-methylsulfonamido)benzo-furan-3-carboxamide] | 5.95 nM | 6.45 nM
